Laboratory results taken from patent publication US7098337B2, “1,2,3,4,9,9a-hexahydro-2,4a,5-triaza-fluorene and 1,2,3,4-tetrahydro-2,4a,5-triaza-fluorene derivatives” (priority 2002, dated 2006).
pEC50, pKi: −log10 of the molar value.

What was measured:
[1] = biological target: T1, 5-HT2A receptor (Homo sapiens, UniProt P28223); experiment: Binding to the 5-HT2A receptor, [125I]-DOI, CHO cell line (Method (c)); design: expressed in transfected cells; host or cells: CHO cell line; details: read-out: Ki (2A)
Experimental: (§1) The binding of compounds of formula (I) to serotonin receptors was determined in vitro by standard methods. The activity of the test compounds was investigated in accordance with the assays given below.
Method (c): For the binding to the 5-HT2A receptor, the 5-HT2A receptors were radiolabeled with [^125I]-DOI. The affinity of the compounds for 5-HT2A receptors in a CHO cell line was determined according to the procedure of D. J. McKenna and S. J. Peroutka, J. Neurosci., 1989, 9, 3482–90.

[2] = biological target: T2, 5-HT2C receptor (Homo sapiens, UniProt P28335); experiment: Functional activity, FLIPR calcium assay, CHO cells expressing human 5-HT2C; format: cell-based; design: expressed in transfected cells; host or cells: CHO cells; details: for h5-HT2C Rel. Eff.: relative efficacy vs response to 10 μM 5-HT (defined as 100%)
Experimental: (§2) The functional activity of compounds of formula (I) was assayed using a Fluorimetric Imaging Plate reader (FLIPR). CHO cells expressing the human 5-HT2C or human 5-HT2A receptors were counted and plated into standard 96 well microtitre plates on the day before testing to give a confluent monolayer. The cells were then dye loaded with the calcium sensitive dye, Fluo-3-AM. Unincorporated dye was removed using an automated cell washer to leave a total volume of 100 μL/well of assay buffer (Hanks balanced salt solution containing 20 mM Hepes and 2.5 mM probenecid). The drug (dissolved in 50 μL of the assay buffer) was added at a rate of 70 μL/sec to each well of the FLIPR 96 well plate during fluorescence measurements. The measurements were taken at 1 sec intervals and the maximum fluorescent signal was measured (approx 10–15 secs after drug addition) and compared with the response produced by 10 μM 5-HT (defined as 100%) to which it was expressed as a percentage response (relative efficacy). Dose response curves were constructed using Graphpad Prism (Graph Software Inc.).

[3] = biological target: T1, 5-HT2A receptor; experiment: Functional activity, FLIPR calcium assay, CHO cells expressing human 5-HT2A; format: cell-based; design: expressed in transfected cells; host or cells: CHO cells; details: for pEC50: FLIPR, CHO cells expressing human 5-HT2A, read-out: h5-HT2A EC50; for h5-HT2A Rel. Eff.: relative efficacy vs response to 10 μM 5-HT (defined as 100%)
Experimental: as §2

[4] = biological target: T3, human 5-HT2B receptors (Homo sapiens, UniProt P41595); experiment: Binding to the 5-HT2B receptor, [3H]-5-HT, CHO cell line (Method (b)); details: human 5-HT2B in CHO cell line, read-out: Ki (2B)
T3 construct: expressed in transfected cells; host or cells: CHO cell line
Experimental: as §1
Method (b): For the binding to the 5-HT2B receptor, the 5-HT2B receptors were radiolabeled with [^3H]-5-HT. The affinity of the compounds for human 5-HT2B receptors in a CHO cell line was determined according to the procedure of K. Schmuck, C. Ullmer, P. Engels and H. Lubbert, FEBS Lett., 1994, 342, 85–90.

[5] = biological target: T2, 5-HT2C receptor; experiment: Binding to the 5-HT2C receptor, [3H]-5-HT, CHO cell line (Method (a)); design: expressed in transfected cells; host or cells: CHO cell line
Experimental: as §1
Method (a): For the binding to the 5-HT2C receptor, the 5-HT2C receptors were radiolabeled with [^3H]-5-HT. The affinity of the compounds for 5-HT2C receptors in a CHO cell line was determined according to the procedure of D. Hoyer, G. Engel and H. O. Kalkman, European J. Pharmacol., 1985, 118, 13–23.

T2 sequence (P28335 33-458): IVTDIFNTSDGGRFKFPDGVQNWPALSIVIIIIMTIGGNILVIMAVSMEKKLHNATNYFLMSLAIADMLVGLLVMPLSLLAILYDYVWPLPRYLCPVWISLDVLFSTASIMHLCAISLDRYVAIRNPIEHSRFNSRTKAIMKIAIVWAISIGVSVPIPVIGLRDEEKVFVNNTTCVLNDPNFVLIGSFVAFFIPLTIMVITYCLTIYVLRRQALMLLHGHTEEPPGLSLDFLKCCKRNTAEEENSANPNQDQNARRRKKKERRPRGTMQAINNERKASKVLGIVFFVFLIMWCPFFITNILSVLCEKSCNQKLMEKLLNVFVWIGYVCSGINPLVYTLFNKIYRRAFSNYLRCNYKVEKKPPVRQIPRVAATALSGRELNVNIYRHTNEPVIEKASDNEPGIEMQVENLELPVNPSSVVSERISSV
T1 sequence (P28223 whole entry): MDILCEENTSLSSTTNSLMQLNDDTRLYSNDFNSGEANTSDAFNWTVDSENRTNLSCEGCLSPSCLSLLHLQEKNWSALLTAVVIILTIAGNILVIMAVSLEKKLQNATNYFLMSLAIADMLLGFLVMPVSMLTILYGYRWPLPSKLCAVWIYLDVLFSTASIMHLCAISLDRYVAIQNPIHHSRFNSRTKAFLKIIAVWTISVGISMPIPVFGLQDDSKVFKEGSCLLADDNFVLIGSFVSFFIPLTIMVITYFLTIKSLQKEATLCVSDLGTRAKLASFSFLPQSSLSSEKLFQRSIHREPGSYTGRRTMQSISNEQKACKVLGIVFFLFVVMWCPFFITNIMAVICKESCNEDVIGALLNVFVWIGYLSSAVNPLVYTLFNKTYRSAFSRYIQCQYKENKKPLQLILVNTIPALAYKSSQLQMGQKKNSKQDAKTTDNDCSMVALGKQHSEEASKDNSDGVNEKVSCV
T3 sequence (P41595 whole entry): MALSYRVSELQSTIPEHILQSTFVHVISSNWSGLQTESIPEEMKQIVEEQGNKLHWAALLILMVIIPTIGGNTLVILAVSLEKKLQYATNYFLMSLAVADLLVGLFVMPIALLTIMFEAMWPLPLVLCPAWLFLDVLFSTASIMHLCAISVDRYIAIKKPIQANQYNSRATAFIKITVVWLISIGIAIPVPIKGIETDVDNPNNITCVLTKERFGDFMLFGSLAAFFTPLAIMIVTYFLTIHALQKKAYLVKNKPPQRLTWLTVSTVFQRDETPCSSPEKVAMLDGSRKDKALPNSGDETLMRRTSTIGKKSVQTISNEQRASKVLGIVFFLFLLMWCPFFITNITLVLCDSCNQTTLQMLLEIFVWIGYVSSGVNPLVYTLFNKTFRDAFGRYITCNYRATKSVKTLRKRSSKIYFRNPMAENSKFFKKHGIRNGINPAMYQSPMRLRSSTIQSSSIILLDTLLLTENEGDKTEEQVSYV

CCc1ccc2c(n1)N1[C@@H](CNC[C@H]1C)C2 [Example 9, (4R,9aR)-6-Ethyl-4-methyl-1,2,3,4,9,9a-hexahydro-2,4a,5-triaza-fluorene]
pKi [1]: 6.67 | pEC50 [2]: 7.07 | h5-HT2C Rel. Eff. [2]: 91.4% | pEC50 [3]: 6.19 | h5-HT2A Rel. Eff. [3]: 29.6% | pKi [4]: 6.57 | pKi [5]: 7.78

Cc1c2n(c3nc(Cl)ccc13)[C@H](C)CNC2 [Example 20, (R)-6-Chloro-4,9-dimethyl-1,2,3,4-tetrahydro-2,4a,5-triaza-fluorene]
pKi [1]: 6.75 | pEC50 [2]: 8.12 | h5-HT2C Rel. Eff. [2]: 93.3% | pEC50 [3]: 7.95 | h5-HT2A Rel. Eff. [3]: 12.0% | pKi [4]: 6.97 | pKi [5]: 8.29
